Measured values taken from ChEMBL document CHEMBL1139951, “Synthesis and local anesthetic activity of fluoro-substituted imipramine and its analogues” (Bioorg Med Chem Lett, 2007).

Key:
[1] = Dissociation constant, pKa by potentiometric titration method; format: physicochemical
Sciatic nerve [2] = assay: Anesthetic activity in toad sciatic nerves assessed as latent period of sciatic nerve block; format: functional, Bufo bufo
Sciatic nerve [3] = assay: Anesthetic activity in toad sciatic nerves assessed as sciatic nerve block activity; format: functional, Bufo bufo
Sciatic nerve [4] = assay: Anesthetic activity in toad sciatic nerves assessed as sciatic nerve block activity relative to Lidocaine; format: functional, Bufo bufo; design: unit not given here

| pKa [1] | SMILES | Latent period of sciatic nerve block (Sciatic nerve [2]) [min] | Activity (Sciatic nerve [3]) [%] | Activity (Sciatic nerve [4]) |
| --- | --- | --- | --- | --- |
| 7.6 | Fc1ccc2c(c1)N(CCCN1CCCCC1)c1cc(F)ccc1CC2 | – | – | – |
| – | CCN(CC)CCCN1c2cc(F)ccc2CCc2ccc(F)cc21.Cl | 38.2 | 0.018 | 105.5 |
| 7.9 | Fc1ccc2c(c1)N(CCCN1CCCC1)c1cc(F)ccc1CC2 | – | – | – |
| 7.7 | CCN(CC)CCCN1c2cc(F)ccc2CCc2ccc(F)cc21 | – | – | – |
| – | Cl.Fc1ccc2c(c1)N(CCCN1CCOCC1)c1cc(F)ccc1CC2 | 37.3 | 0.029 | 65.5 |
| – | Cl.Fc1ccc2c(c1)N(CCCN1CCCC1)c1cc(F)ccc1CC2 | 40.6 | 0.069 | 27.5 |
| 7.6 | Fc1ccc2c(c1)N(CCCN1CCOCC1)c1cc(F)ccc1CC2 | – | – | – |
| – | Cl.Fc1ccc2c(c1)N(CCCN1CCCCC1)c1cc(F)ccc1CC2 | 39.8 | 0.039 | 48.7 |
| – | CN(C)CCCN1c2cc(F)ccc2CCc2ccc(F)cc21.Cl | 30.7 | 0.094 | 20.2 |
| – | CCN(CC)CC(=O)Nc1c(C)cccc1C.Cl | 37.2 | 0.019 | 100 |
| 7.7 | CN(C)CCCN1c2cc(F)ccc2CCc2ccc(F)cc21 | – | – | – |
